From patent US9113629B2, “4-amino-6-(4-substituted-phenyl)-picolinates and 6-amino-2-(4-substituted-phenyl)-pyrimidine-4-carboxylates and their use as herbicides” (DOW AGROSCIENCES LLC, priority 2013, dated 2015)

system: Key Grass and Sedge Weeds as well as Grass Crops; assay: Post-emergent Test II herbicidal activity (Table 6); type: in vivo; conditions: Triticum aestivum, post-emergence, 336 h, TRZSS (wheat), application rate 70 g ai/ha, read-out: Visual Growth Reduction (%) 14 Days After Application, TRZSS
Procedure, shortened: (§1)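 Greenhouse post-emergent assay: seedlings (first/second true leaf) in Metro-Mix 360 were sprayed at 187 L/ha at a top rate plus twofold dilutions down to 1/16×; solvent-blank controls were included. Percent visual injury was read at 14 d.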

Row | Structure (SMILES) | pest or weed control at 70 g/ha
1 | C=Cc1c(C(=O)O)nc(-c2ccc(C(F)(F)F)c(F)c2)c(F)c1N [Compound 86] | 0 to 29%

same assay, conditions: Triticum aestivum, post-emergence, 336 h, TRZSS (wheat), application rate 140 g ai/ha, read-out: Visual Growth Reduction (%) 14 Days After Application, TRZSS

Row | Structure (SMILES) | pest or weed control at 140 g/ha
2 | C=Cc1c(C(=O)O)nc(-c2ccc(C(F)(F)F)c(F)c2)c(F)c1N [Compound 86] | 0 to 29%

same assay, conditions: post-emergence, 336 h, CYPES: yellow nutsedge (Cyperus esculentus), application rate 70 g ai/ha, read-out: Visual Growth Reduction (%) 14 Days After Application, CYPES

Row | Structure (SMILES) | pest or weed control at 70 g/ha
3 | C=Cc1c(C(=O)O)nc(-c2ccc(C(F)(F)F)c(F)c2)c(F)c1N [Compound 86] | 95 to 100%

same assay, conditions: post-emergence, 336 h, CYPES: yellow nutsedge (Cyperus esculentus), application rate 140 g ai/ha, read-out: Visual Growth Reduction (%) 14 Days After Application, CYPES

Row | Structure (SMILES) | pest or weed control at 140 g/ha
4 | C=Cc1c(C(=O)O)nc(-c2ccc(C(F)(F)F)c(F)c2)c(F)c1N [Compound 86] | 95 to 100%

same assay, conditions: post-emergence, 336 h, DIGSA: crabgrass (Digitaria sanguinalis), application rate 70 g ai/ha, read-out: Visual Growth Reduction (%) 14 Days After Application, DIGSA

Row | Structure (SMILES) | pest or weed control at 70 g/ha
5 | C=Cc1c(C(=O)O)nc(-c2ccc(C(F)(F)F)c(F)c2)c(F)c1N [Compound 86] | 0 to 29%

same assay, conditions: post-emergence, 336 h, DIGSA: crabgrass (Digitaria sanguinalis), application rate 140 g ai/ha, read-out: Visual Growth Reduction (%) 14 Days After Application, DIGSA

Row | Structure (SMILES) | pest or weed control at 140 g/ha
6 | C=Cc1c(C(=O)O)nc(-c2ccc(C(F)(F)F)c(F)c2)c(F)c1N [Compound 86] | 0 to 29%

same assay, conditions: post-emergence, 336 h, ECHCG: barnyardgrass (Echinochloa crus-galli), application rate 70 g ai/ha, read-out: Visual Growth Reduction (%) 14 Days After Application, ECHCG

Row | Structure (SMILES) | pest or weed control at 70 g/ha
7 | C=Cc1c(C(=O)O)nc(-c2ccc(C(F)(F)F)c(F)c2)c(F)c1N [Compound 86] | 75 to 84%

same assay, conditions: post-emergence, 336 h, ECHCG: barnyardgrass (Echinochloa crus-galli), application rate 140 g ai/ha, read-out: Visual Growth Reduction (%) 14 Days After Application, ECHCG

Row | Structure (SMILES) | pest or weed control at 140 g/ha
8 | C=Cc1c(C(=O)O)nc(-c2ccc(C(F)(F)F)c(F)c2)c(F)c1N [Compound 86] | 85 to 94%

same assay, conditions: post-emergence, 336 h, ORYSA: rice (Oryza sativa), application rate 70 g ai/ha, read-out: Visual Growth Reduction (%) 14 Days After Application, ORYSA

Row | Structure (SMILES) | pest or weed control at 70 g/ha
9 | C=Cc1c(C(=O)O)nc(-c2ccc(C(F)(F)F)c(F)c2)c(F)c1N [Compound 86] | 30 to 44%

same assay, conditions: post-emergence, 336 h, ORYSA: rice (Oryza sativa), application rate 140 g ai/ha, read-out: Visual Growth Reduction (%) 14 Days After Application, ORYSA

Row | Structure (SMILES) | pest or weed control at 140 g/ha
10 | C=Cc1c(C(=O)O)nc(-c2ccc(C(F)(F)F)c(F)c2)c(F)c1N [Compound 86] | 45 to 59%

same assay, conditions: post-emergence, 336 h, SETFA: giant foxtail (Setaria faberi), application rate 70 g ai/ha, read-out: Visual Growth Reduction (%) 14 Days After Application, SETFA

Row | Structure (SMILES) | pest or weed control at 70 g/ha
11 | C=Cc1c(C(=O)O)nc(-c2ccc(C(F)(F)F)c(F)c2)c(F)c1N [Compound 86] | 0 to 29%

same assay, conditions: post-emergence, 336 h, SETFA: giant foxtail (Setaria faberi), application rate 140 g ai/ha, read-out: Visual Growth Reduction (%) 14 Days After Application, SETFA

Row | Structure (SMILES) | pest or weed control at 140 g/ha
12 | C=Cc1c(C(=O)O)nc(-c2ccc(C(F)(F)F)c(F)c2)c(F)c1N [Compound 86] | 0 to 29%

same assay, conditions: post-emergence, 336 h, SORVU: grain sorghum (Sorghum vulgare), application rate 70 g ai/ha, read-out: Visual Growth Reduction (%) 14 Days After Application, SORVU

Row | Structure (SMILES) | pest or weed control at 70 g/ha
13 | C=Cc1c(C(=O)O)nc(-c2ccc(C(F)(F)F)c(F)c2)c(F)c1N [Compound 86] | 75 to 84%

same assay, conditions: post-emergence, 336 h, ZEAMX: maize, corn (Zea mays), application rate 70 g ai/ha, read-out: Visual Growth Reduction (%) 14 Days After Application, ZEAMX

Row | Structure (SMILES) | pest or weed control at 70 g/ha
14 | C=Cc1c(C(=O)O)nc(-c2ccc(C(F)(F)F)c(F)c2)c(F)c1N [Compound 86] | 60 to 74%

same assay, conditions: post-emergence, 336 h, ZEAMX: maize, corn (Zea mays), application rate 140 g ai/ha, read-out: Visual Growth Reduction (%) 14 Days After Application, ZEAMX

Row | Structure (SMILES) | pest or weed control at 140 g/ha
15 | C=Cc1c(C(=O)O)nc(-c2ccc(C(F)(F)F)c(F)c2)c(F)c1N [Compound 86] | 60 to 74%

system: not given; assay: not given; conditions: not given

Row | melting point | Structure (SMILES)
16 | 120 to 122 °C | C=Cc1c(C(=O)O)nc(-c2ccc(C(F)(F)F)c(F)c2)c(F)c1N [Compound 86]

system: Key Broadleaf Weed and Crop Species; assay: Post-emergent Test II herbicidal activity (Table 5); type: in vivo; conditions: post-emergence, 336 h; ABUTH: velvetleaf (Abutilon theophrasti); 70 g ai/ha; post-emergent; 14 days after application; read-out: Visual Growth Reduction (%) 14 Days After Application ABUTH
Procedure, shortened: as §1

Row | Structure (SMILES) | pest or weed control at 70 g/ha
17 | C=Cc1c(C(=O)O)nc(-c2ccc(C(F)(F)F)c(F)c2)c(F)c1N [Compound 86] | 95 to 100%

same assay, conditions: post-emergence, 336 h; ABUTH: velvetleaf (Abutilon theophrasti); 140 g ai/ha; post-emergent; 14 days after application; read-out: Visual Growth Reduction (%) 14 Days After Application ABUTH

Row | Structure (SMILES) | pest or weed control at 140 g/ha
18 | C=Cc1c(C(=O)O)nc(-c2ccc(C(F)(F)F)c(F)c2)c(F)c1N [Compound 86] | 95 to 100%

same assay, conditions: post-emergence, 336 h; BRSNN: oilseed-rape, canola (Brassica napus); 70 g ai/ha; post-emergent; 14 days after application; read-out: Visual Growth Reduction (%) 14 Days After Application BRSNN

Row | Structure (SMILES) | pest or weed control at 70 g/ha
19 | C=Cc1c(C(=O)O)nc(-c2ccc(C(F)(F)F)c(F)c2)c(F)c1N [Compound 86] | 75 to 84%

same assay, conditions: post-emergence, 336 h; BRSNN: oilseed-rape, canola (Brassica napus); 140 g ai/ha; post-emergent; 14 days after application; read-out: Visual Growth Reduction (%) 14 Days After Application BRSNN

Row | Structure (SMILES) | pest or weed control at 140 g/ha
20 | C=Cc1c(C(=O)O)nc(-c2ccc(C(F)(F)F)c(F)c2)c(F)c1N [Compound 86] | 95 to 100%

same assay, conditions: post-emergence, 336 h; CHEAL: lambsquarters (Chenopodium album); 70 g ai/ha; post-emergent; 14 days after application; read-out: Visual Growth Reduction (%) 14 Days After Application CHEAL

Row | Structure (SMILES) | pest or weed control at 70 g/ha
21 | C=Cc1c(C(=O)O)nc(-c2ccc(C(F)(F)F)c(F)c2)c(F)c1N [Compound 86] | 95 to 100%

same assay, conditions: post-emergence, 336 h; CHEAL: lambsquarters (Chenopodium album); 140 g ai/ha; post-emergent; 14 days after application; read-out: Visual Growth Reduction (%) 14 Days After Application CHEAL

Row | Structure (SMILES) | pest or weed control at 140 g/ha
22 | C=Cc1c(C(=O)O)nc(-c2ccc(C(F)(F)F)c(F)c2)c(F)c1N [Compound 86] | 95 to 100%

same assay, conditions: post-emergence, 336 h; EPHHL: wild poinsettia (Euphorbia heterophylla); 70 g ai/ha; post-emergent; 14 days after application; read-out: Visual Growth Reduction (%) 14 Days After Application EPHHL

Row | Structure (SMILES) | pest or weed control at 70 g/ha
23 | C=Cc1c(C(=O)O)nc(-c2ccc(C(F)(F)F)c(F)c2)c(F)c1N [Compound 86] | 95 to 100%

same assay, conditions: post-emergence, 336 h; EPHHL: wild poinsettia (Euphorbia heterophylla); 140 g ai/ha; post-emergent; 14 days after application; read-out: Visual Growth Reduction (%) 14 Days After Application EPHHL

Row | Structure (SMILES) | pest or weed control at 140 g/ha
24 | C=Cc1c(C(=O)O)nc(-c2ccc(C(F)(F)F)c(F)c2)c(F)c1N [Compound 86] | 95 to 100%

same assay, conditions: post-emergence, 336 h; HELAN: sunflower (Helianthus annuus); 70 g ai/ha; post-emergent; 14 days after application; read-out: Visual Growth Reduction (%) 14 Days After Application HELAN

Row | Structure (SMILES) | pest or weed control at 70 g/ha
25 | C=Cc1c(C(=O)O)nc(-c2ccc(C(F)(F)F)c(F)c2)c(F)c1N [Compound 86] | 95 to 100%

same assay, conditions: post-emergence, 336 h; HELAN: sunflower (Helianthus annuus); 140 g ai/ha; post-emergent; 14 days after application; read-out: Visual Growth Reduction (%) 14 Days After Application HELAN

Row | Structure (SMILES) | pest or weed control at 140 g/ha
26 | C=Cc1c(C(=O)O)nc(-c2ccc(C(F)(F)F)c(F)c2)c(F)c1N [Compound 86] | 95 to 100%

same assay, conditions: post-emergence, 336 h; VIOTR: wild pansy (Viola tricolor); 70 g ai/ha; post-emergent; 14 days after application; read-out: Visual Growth Reduction (%) 14 Days After Application VIOTR

Row | Structure (SMILES) | pest or weed control at 70 g/ha
27 | C=Cc1c(C(=O)O)nc(-c2ccc(C(F)(F)F)c(F)c2)c(F)c1N [Compound 86] | 95 to 100%

same assay, conditions: post-emergence, 336 h; VIOTR: wild pansy (Viola tricolor); 140 g ai/ha; post-emergent; 14 days after application; read-out: Visual Growth Reduction (%) 14 Days After Application VIOTR

Row | Structure (SMILES) | pest or weed control at 140 g/ha
28 | C=Cc1c(C(=O)O)nc(-c2ccc(C(F)(F)F)c(F)c2)c(F)c1N [Compound 86] | 95 to 100%
